# Residues, ends and D or L forms follow the SMILES beside them.
# Columns and labels:
# [1] = Growth inhibition of human PL45 cells at 5 uM after 24 hrs by [3H]thymidine uptake assay; assay type: functional; settings: read-out: GI
# HCT-116 = assay: Growth inhibition of human HCT116 cells at 5 uM after 24 hrs by [3H]thymidine uptake assay; assay type: functional; settings: read-out: GI
SMILES,inhibition of growth at 5 µM [1] [%],inhibition of growth at 5 µM (HCT-116) [%]
CC(C)C[C@@H]1NC(=O)[C@H](CC(C)C)NC(=O)[C@@H](Cc2ccccc2)NC(=O)[C@H](CC(C)C)NC(=O)[C@H](C(C)C)NC(=O)[C@H](CC(C)C)NC(=O)[C@H](CC(C)C)NC(=O)[C@@H](Cc2ccccc2)NC(=O)[C@H](CC(C)C)NC(=O)[C@H](C(C)C)NC1=O,11,0
CC(C)C[C@@H]1NC(=O)[C@H](Cc2ccccc2)NC(=O)[C@H](CC(C)C)NC(=O)[C@H](C(C)C)NC(=O)[C@H](CC(C)C)NC1=O (cyclo(FLLVL)),25,33
CC(C)C[C@@H]1NC(=O)[C@H](Cc2ccccc2)NC(=O)[C@H](CC(C)C)NC(=O)[C@@H](C(C)C)NC(=O)[C@H](CC(C)C)NC(=O)[C@H](CC(C)C)NC(=O)[C@H](Cc2ccccc2)NC(=O)[C@H](CC(C)C)NC(=O)[C@@H](C(C)C)NC(=O)[C@H](CC(C)C)NC1=O,30,0
CC(C)C[C@@H]1NC(=O)[C@H](Cc2ccccc2)NC(=O)[C@H](CC(C)C)NC(=O)[C@H](C(C)C)NC(=O)[C@@H](CC(C)C)NC(=O)[C@H](CC(C)C)NC(=O)[C@H](Cc2ccccc2)NC(=O)[C@H](CC(C)C)NC(=O)[C@H](C(C)C)NC(=O)[C@@H](CC(C)C)NC1=O,12,0
CC(C)C[C@@H]1NC(=O)[C@H](Cc2ccccc2)NC(=O)[C@@H](CC(C)C)NC(=O)[C@H](C(C)C)NC(=O)[C@@H](CC(C)C)NC(=O)[C@H](CC(C)C)NC(=O)[C@H](Cc2ccccc2)NC(=O)[C@@H](CC(C)C)NC(=O)[C@H](C(C)C)NC(=O)[C@@H](CC(C)C)NC1=O,9,0
CC(C)C[C@@H]1NC(=O)[C@H](CC(C)C)NC(=O)[C@@H](Cc2ccccc2)NC(=O)[C@@H](CC(C)C)NC(=O)[C@H](C(C)C)NC(=O)[C@H](CC(C)C)NC(=O)[C@H](CC(C)C)NC(=O)[C@@H](Cc2ccccc2)NC(=O)[C@@H](CC(C)C)NC(=O)[C@H](C(C)C)NC1=O,36,0
CC(C)C[C@@H]1NC(=O)[C@H](Cc2ccccc2)NC(=O)[C@@H](CC(C)C)NC(=O)[C@@H](C(C)C)NC(=O)[C@@H](CC(C)C)NC(=O)[C@H](CC(C)C)NC(=O)[C@H](Cc2ccccc2)NC(=O)[C@@H](CC(C)C)NC(=O)[C@@H](C(C)C)NC(=O)[C@@H](CC(C)C)NC1=O,21,17
CC(C)C[C@@H]1NC(=O)[C@H](Cc2ccccc2)NC(=O)[C@@H](CC(C)C)NC(=O)[C@@H](C(C)C)NC(=O)[C@H](CC(C)C)NC(=O)[C@H](CC(C)C)NC(=O)[C@@H](Cc2ccccc2)NC(=O)[C@@H](CC(C)C)NC(=O)[C@@H](C(C)C)NC(=O)[C@H](CC(C)C)NC1=O,7,0
CC(C)C[C@@H]1NC(=O)[C@H](Cc2ccccc2)NC(=O)[C@H](CC(C)C)NC(=O)[C@@H](C(C)C)NC(=O)[C@@H](CC(C)C)NC(=O)[C@H](CC(C)C)NC(=O)[C@H](Cc2ccccc2)NC(=O)[C@H](CC(C)C)NC(=O)[C@@H](C(C)C)NC(=O)[C@@H](CC(C)C)NC1=O,25,0
CC(C)C[C@@H]1NC(=O)[C@H](C(C)C)NC(=O)[C@H](CC(C)C)NC(=O)[C@@H](CC(C)C)NC(=O)[C@@H](Cc2ccccc2)NC(=O)[C@H](CC(C)C)NC(=O)[C@H](C(C)C)NC(=O)[C@H](CC(C)C)NC(=O)[C@@H](CC(C)C)NC(=O)[C@@H](Cc2ccccc2)NC1=O,12,0
CC(C)C[C@@H]1NC(=O)[C@H](Cc2ccccc2)NC(=O)[C@@H](CC(C)C)NC(=O)[C@@H](C(C)C)NC(=O)[C@H](CC(C)C)NC(=O)[C@@H](CC(C)C)NC(=O)[C@@H](Cc2ccccc2)NC(=O)[C@@H](CC(C)C)NC(=O)[C@@H](C(C)C)NC(=O)[C@@H](CC(C)C)NC1=O,17,0
CC(C)C[C@@H]1NC(=O)[C@H](Cc2ccccc2)NC(=O)[C@@H](Cc2ccccc2)NC(=O)[C@@H](C(C)C)NC(=O)[C@H](CC(C)C)NC(=O)[C@H](CC(C)C)NC(=O)[C@H](Cc2ccccc2)NC(=O)[C@@H](Cc2ccccc2)NC(=O)[C@@H](C(C)C)NC(=O)[C@H](CC(C)C)NC1=O,13,16
CC(C)C[C@@H]1NC(=O)[C@H](CC(C)C)NC(=O)[C@@H](Cc2ccccc2)NC(=O)[C@@H](CC(C)C)NC(=O)[C@@H](C(C)C)NC(=O)[C@@H](CC(C)C)NC(=O)[C@H](CC(C)C)NC(=O)[C@@H](Cc2ccccc2)NC(=O)[C@@H](CC(C)C)NC(=O)[C@@H](C(C)C)NC1=O,8,0
CC(C)C[C@@H]1NC(=O)[C@H](Cc2ccccc2)NC(=O)[C@@H](CC(C)C)NC(=O)[C@@H](C(C)C)NC(=O)[C@H](CC(C)C)NC(=O)[C@@H](CC(C)C)NC(=O)[C@H](Cc2ccccc2)NC(=O)[C@@H](CC(C)C)NC(=O)[C@@H](C(C)C)NC(=O)[C@@H](CC(C)C)NC1=O,4,0
CC(C)C[C@@H]1NC(=O)[C@H](Cc2ccccc2)NC(=O)[C@@H](CC(C)C)NC(=O)[C@@H](C(C)C)NC(=O)[C@@H](CC(C)C)NC(=O)[C@H](CC(C)C)NC(=O)[C@@H](Cc2ccccc2)NC(=O)[C@@H](CC(C)C)NC(=O)[C@@H](C(C)C)NC(=O)[C@@H](CC(C)C)NC1=O,12,0
CC(C)C[C@@H]1NC(=O)[C@@H](Cc2ccccc2)NC(=O)[C@@H](CC(C)C)NC(=O)[C@@H](C(C)C)NC(=O)[C@@H](CC(C)C)NC(=O)[C@H](CC(C)C)NC(=O)[C@@H](Cc2ccccc2)NC(=O)[C@@H](CC(C)C)NC(=O)[C@@H](C(C)C)NC(=O)[C@@H](CC(C)C)NC1=O,79,40
CC(C)C[C@@H]1NC(=O)[C@H](Cc2ccccc2)NC(=O)[C@@H](Cc2ccccc2)N(C)C(=O)[C@@H](C(C)C)NC(=O)[C@H](CC(C)C)NC(=O)[C@H](CC(C)C)NC(=O)[C@H](Cc2ccccc2)NC(=O)[C@@H](Cc2ccccc2)N(C)C(=O)[C@@H](C(C)C)NC(=O)[C@H](CC(C)C)NC1=O,10,0
CC(C)C[C@@H]1NC(=O)[C@H](C(C)C)NC(=O)[C@@H](CC(C)C)NC(=O)[C@@H](CC(C)C)NC(=O)[C@H](Cc2ccccc2)NC(=O)[C@H](CC(C)C)NC(=O)[C@H](C(C)C)NC(=O)[C@@H](CC(C)C)NC(=O)[C@@H](CC(C)C)NC(=O)[C@H](Cc2ccccc2)NC1=O,48,0
CC(C)C[C@@H]1NC(=O)[C@H](C(C)C)NC(=O)[C@@H](CC(C)C)NC(=O)[C@@H](Cc2ccccc2)NC(=O)[C@H](Cc2ccccc2)NC(=O)[C@H](CC(C)C)NC(=O)[C@H](C(C)C)NC(=O)[C@@H](CC(C)C)NC(=O)[C@@H](Cc2ccccc2)NC(=O)[C@H](Cc2ccccc2)NC1=O,10,0
CC(C)C[C@@H]1NC(=O)[C@H](CC(C)C)NC(=O)[C@@H](Cc2ccccc2)NC(=O)[C@@H](CC(C)C)NC(=O)[C@@H](C(C)C)NC(=O)[C@H](CC(C)C)NC(=O)[C@H](CC(C)C)NC(=O)[C@@H](Cc2ccccc2)NC(=O)[C@@H](CC(C)C)NC(=O)[C@@H](C(C)C)NC1=O,10,0
